Experiments:
[1] = Pilot PET experiments in patients with bacterial abscesses; assay type: in vivo, human; details: small pilot series in patients
[2] = PET with DDE (and GLD) in patients with whiplash associated disorder (WAD); assay type: in vivo, human; details: for increase of uptake at cervical vertebrae 2 and 3 (insertion in m. semispinalis capitis): one case
Source text: Clinically, those patients with a higher uptake of DDE in the affected joint areas seem to report high pain ratings while being in the scanner.
In a similar experiment, sixteen patients were investigated using a high resolution PET scanner.
In the […] experiments, local uptake was present in all cases in the parotis and submandibularis glandulae. Differences between patients were found in areas related to the insertion of muscles to the occipital bone, vertebrae and clavicula.

[3] = Frozen section autoradiography / in vitro binding on tissue slices; design: species or system human; details: for tracer binding in inflammatory tissues in vitro: about 20 micrometer slices, about 2 nM tracer, about 40 minutes, room temperature
Protocol: There are various hypothesis as to what biological mechanisms are behind the high uptake of DDE in inflammatory joint tissues of humans.
The in vitro binding experiments were performed on thin slices of tissue of about 20 micrometers in rats and in humans. The thin slices of tissues were adhered to gelatinized slide glasses. […] After incubation the slide glasses were washed about 3 times in a buffer, dried, and exposed on phosphor imaging plates for a minimum of 60 minutes.

[4] = PET-CT with DDE in healthy subjects; assay type: in vivo, human; details: eight healthy subjects
Source text: In a third experiment eight healthy subjects were investigated using a PET-CT (Computerized Tomography) scanner. PET/CT combines the strengths of two well-established imaging modalities, PET for function and CT for anatomy, into a single imaging device. The subjects were free from pain in the neck and shoulder regions during at least two months and they had not been involved in accidents which could have caused a neck injury.

[5] = PET with DDE in inflamed joints (rheumatoid arthritis patients); assay type: in vivo, human

Row | SMILES | increase of tracer uptake in bacterial abscesses [1] | increase of uptake at cervical vertebrae 2 and 3 (insertion in m. semispinalis capitis) [2] | tracer binding in inflammatory tissues in vitro [3] | increased uptake in scanned neck and shoulder regions [4] | increase in uptake compared with the cerebellum, insertion of m. rectus capitis posterior major ([2]; bilaterally in 3 patients, normalized to inferior part of the cerebellum) | binding of tracer to soft tissue in the neck vertebra ([2]; four of eight WAD patients, PET) | difference in uptake between right and left side ([2]; fourth patient, no clear increase) | patients with increased uptake in the neck and shoulder areas ([2]; sixteen patients, high resolution PET scanner) | binding in frozen section autoradiography ([3]; various tissues) | uptake and retention on swollen synovial tissue ([5]; inflamed synovial joints) | uptake in affected joint after intra-articular injections of glucocorticoids ([5]; observed 6-14 days after treatment) | blocking of uptake in inflamed joint by Eldepryl (MAO-B blocking) ([5]; one patient re-examined after administration of Eldepryl) | activity in inflamed tissue as seen in PET images ([5]; patients with rheumatoid arthritis) | reduction of activity in inflamed tissue ([5]; the day after intra-articular administration of glucocorticoid)
1 | [11CH3]Oc1ccc(-n2nnnc2C(F)(F)F)cc1CN[C@H]1CCCN[C@H]1c1ccccc1 [GLD, [^11C]-GR205171] | no visible increase | approximately 70% | very high |  |  |  |  |  |  |  |  |  |  | 
2 | C#CCN([11CH3])[C@@H](C)Cc1ccccc1 [DDE, D-[methyl-^11C]-deprenyl] | no visible increase | approximately 70% | very high | None of the subjects revealed an increased uptake | 57%-127% | appeared to bind to soft tissue in the neck vertebra | 40% | about 50% | much higher binding in inflamed joints than any other tissues | very pronounced uptake and retention | significant diminishing of the uptake | no blocking effect | very high activity | 50%
